Data as given in EPA's ToxRefDB 2.

Legend:
rat [1] = details: Multigenerational reproductive toxicity study; sprague dawley; Oral; Feed; dose end: 2 generation; group: offspring; systemic / in life observation / body weight / offspring (pup) weight
mouse [2] = details: Carcinogenicity, cd1, Oral, Feed, dose end: 104 week, group: systemic
rat [3] = details: Prenatal developmental toxicity study, sprague dawley, Oral, Gavage/Intubation, dose end: 15 GD
mouse [4] = details: Combined chronic toxicity/carcinogenicity, b6c3f1, Oral, Water, dose end: 105 week, group: systemic
rat [5] = details: Combined chronic toxicity/carcinogenicity, fischer, Oral, Water, dose end: 105 week, group: systemic
mouse [6] = details: Subchronic oral toxicity in rodents, b6c3f1, Water, dose end: 3 month, group: systemic
rat [7] = details: Subchronic oral toxicity in rodents, fischer, Water, dose end: 3 month, group: systemic, systemic / clinical chemistry / alanine aminotransferase (alt/sgpt) / alanine aminotransferase (alt/sgpt) + systemic / clinical chemistry / …
rat [8] = details: Prenatal developmental toxicity study, sprague dawley, Oral, Gavage/Intubation, dose end: 15 GD; remark: listed apart in the source
rabbit = details: Prenatal developmental toxicity study; new zealand white; Oral; Gavage/Intubation; dose end: 18 GD; group: maternal; systemic / in life observation / clinical signs / general motor disturbances + systemic / in life observation / clinical signs / partial …
rat [9] = details: Subchronic dermal toxicity, sprague dawley, Topical, dose end: 91 day, group: systemic, systemic / in life observation / clinical signs / erythema
[10] = systemic / in life observation / body weight / body weight gain + systemic / pathology microscopic / intestine small / hyperplasia + …
[11] = group: developmental, developmental / developmental malformation / bone / absent + developmental / developmental malformation / bone / fused + developmental / …
[12] = group: maternal, systemic / in life observation / clinical signs / alopecia + systemic / in life observation / clinical signs / defecation (diarrhea) + …
[13] = systemic / pathology microscopic / intestine small / adenoma + systemic / pathology microscopic / intestine small / carcinoma + systemic / …
[14] = systemic / pathology microscopic / intestine small / hyperplasia + systemic / pathology microscopic / lymph node / infiltration cellular + …
[15] = systemic / pathology microscopic / liver / inflammation
[16] = systemic / pathology microscopic / oral mucosa / squamous cell carcinoma + systemic / clinical chemistry / alanine aminotransferase (alt/…
[17] = systemic / hematology / erythrocyte (rbc) count differential / erythrocyte (rbc) + systemic / hematology / hemoglobin (hgb) / hemoglobin (…
[18] = systemic / hematology / mean corpuscular hemoglobin (mch) / mean corpuscular hemoglobin (mch) + systemic / pathology microscopic / intestine…
[19] = group: developmental, developmental / developmental malformation / bone / bent + developmental / developmental malformation / bone / unossified + developmental / …
[20] = group: maternal, systemic / in life observation / body weight / body weight + systemic / in life observation / clinical signs / reduced activity + systemic…

Compound N#CSCSc1nc2ccccc2s1 [2-(Thiocyanomethylthio)benzothiazole] has an LEL (rat [1]) of 38.4 mg/kg/day, an LOAEL (rat [1]) of 38.4 mg/kg/day and an NEL (rat [1]) of 9.6 mg/kg/day. It also gave an NOAEL (rat [1]) of 9.6 mg/kg/day, an LOAEL (mouse [2]; systemic / in life observation / body weight / body weight gain + systemic / pathology microscopic / intestine small / hyperplasia) of 148 mg/kg/day and an LEL (mouse [2]; [10]) of 148 mg/kg/day. For the same compound, the NEL (mouse [2]; [10]) was 49.3 mg/kg/day, the NOAEL (mouse [2]; [10]) was 49.3 mg/kg/day and the LEL (rat [3]; [11]) was 126 mg/kg/day. It also gave an LOAEL (rat [3]; [11]) of 126 mg/kg/day, an NEL (rat [3]; [11]) of 76.5 mg/kg/day and an NOAEL (rat [3]; [11]) of 76.5 mg/kg/day. The LEL (rat [3]; [12]) was 76.5 mg/kg/day, the LOAEL (rat [3]; [12]) was 76.5 mg/kg/day and the NEL (rat [3]; [12]) was 25.1 mg/kg/day. It also gave an NOAEL (rat [3]; [12]) of 25.1 mg/kg/day.
O.O.[Na+].[Na+].[O]=[Cr](=[O])([O-])[O][Cr](=[O])(=[O])[O-] [Sodium dichromate(VI) dihydrate] was tested, and the LOAEL (mouse [4]; [13]) was over 17 mg/kg/day, the NOAEL (mouse [4]; [13]) was at least 17 mg/kg/day and the LEL (mouse [4]; [14]) was 1.1 mg/kg/day. The NEL (mouse [4]; [14]) was under 1.1 mg/kg/day, the LEL (rat [5]; [15]) was 0.7 mg/kg/day and the NEL (rat [5]; [15]) was under 0.7 mg/kg/day. It also gave an LOAEL (rat [5]; [16]) of over 17 mg/kg/day, an NOAEL (rat [5]; [16]) of at least 17 mg/kg/day and an LOAEL (mouse [6]; [17]) of over 80 mg/kg/day. It also gave an NOAEL (mouse [6]; [17]) of at least 80 mg/kg/day, an LEL (mouse [6]; [18]) of 9 mg/kg/day and an NEL (mouse [6]; [18]) of under 9 mg/kg/day. It also gave an LEL (rat [7]) of 5 mg/kg/day, an LOAEL (rat [7]) of over 60 mg/kg/day and an NEL (rat [7]) of under 5 mg/kg/day. It also gave an NOAEL (rat [7]) of at least 60 mg/kg/day.
For N#CN=C([S-])[S-].[Na+].[Na+] [Disodium cyanodithioimidocarbonate], the LOAEL (rat [8]; group: developmental, developmental / developmental malformation / bone / bent + developmental / developmental malformation / bone / unossified) was 18 mg/kg/day, the LEL (rat [8]; [19]) was 18 mg/kg/day and the NEL (rat [8]; [19]) was 6 mg/kg/day. The NOAEL (rat [8]; [19]) was 6 mg/kg/day, the LOAEL (rat [8]; group: maternal, systemic / in life observation / body weight / body weight + systemic / in life observation / clinical signs / reduced activity) was 18 mg/kg/day and the LEL (rat [8]; [20]) was 18 mg/kg/day. It also gave an NEL (rat [8]; [20]) of 6 mg/kg/day, an NOAEL (rat [8]; [20]) of 6 mg/kg/day and an LEL (rabbit) of 10 mg/kg/day. It also gave an LOAEL (rabbit) of 10 mg/kg/day, an NEL (rabbit) of 3 mg/kg/day and an NOAEL (rabbit) of 3 mg/kg/day. It also gave an LEL (rat [9]) of 25 mg/kg/day, an LOAEL (rat [9]) of 25 mg/kg/day and an NEL (rat [9]) of under 25 mg/kg/day. The NOAEL (rat [9]) was under 25 mg/kg/day.
